Measurements as given in patent US12122785B2, “Substituted pyridines, pyridazines, pyrimidines, and 1,2,4-triazines as TYK2 inhibitors” (Sudo Biosciences Limited, priority 2021, dated 2024).

Tests used:
[1] = tested on: TYK2 pseudokinase (JH2); IL-23-stimulated HEK-Blue IL-23 cells; assay: HEK-Blue IL-23 reporter assay (STAT3-inducible SEAP) for profiling TYK2 pseudokinase (JH2) inhibition; assay type: cell-based; settings: 10 ng/mL human recombinant IL-23, SEAP readout, read-out: IL23 (TYK2 inhibitory activity, IC50)
In short: (§1)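 Serial compound dilutions preincubated 60 min with cells. IL-23: 10 ng/mL, 22-24 h. IFNα: 1 ng/mL, 16-18 h. QUANTI-Blue SEAP detection.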

[2] = tested on: TYK2 pseudokinase (JH2); IFNα-stimulated HEK-Blue IFNα/β cells; assay: HEK-Blue IFNα/β reporter assay (STAT1-inducible SEAP) for profiling TYK2 pseudokinase (JH2) inhibition; assay type: cell-based; settings: 1 ng/mL human recombinant IFNα, SEAP readout, read-out: IFNα (TYK2 inhibitory activity, IC50)
In short: as §1

TYK2 kinase domain (JH1) = target: T1, TYK2 kinase domain (JH1) (Homo sapiens, UniProt P29597); assay: HTRF-based selectivity assay, TYK2 catalytic domain; assay type: biochemical; settings: 20 μM ATP
T1 construct: recombinant purified His or GST-tagged catalytic domain for each enzyme; made in house
T1 sequence (P29597 897-1176 limits assumed): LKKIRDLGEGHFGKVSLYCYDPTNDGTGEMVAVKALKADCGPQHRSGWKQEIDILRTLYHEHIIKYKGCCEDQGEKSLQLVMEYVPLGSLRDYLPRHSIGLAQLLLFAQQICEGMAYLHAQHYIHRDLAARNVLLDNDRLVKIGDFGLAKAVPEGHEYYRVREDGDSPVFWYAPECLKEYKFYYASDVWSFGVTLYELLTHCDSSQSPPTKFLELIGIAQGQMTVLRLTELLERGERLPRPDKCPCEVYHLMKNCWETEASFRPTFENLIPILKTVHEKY

JAK1 kinase domain (JH1) = target: T2, JAK1 kinase domain (JH1) (Homo sapiens, UniProt P23458); assay: HTRF-based selectivity assay, JAK1 catalytic domain; assay type: biochemical; settings: 21.43 μM ATP, read-out: JAK-JHI (IC50)
T2 construct: recombinant purified His or GST-tagged catalytic domain for each enzyme; made in house
In short: (§2)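 Recombinant His- or GST-tagged JAK catalytic domains (JAK1 80.6, JAK2 2.1, JAK3 171.8 ng/mL) preincubated with compound 5-20 min at RT, then ATP (JAK1 21.43, JAK2 14.7, JAK3 2.12 μM) plus peptide substrate (454.7, 200, 257.4 nM respectively) added. HEPES buffer with MgCl2, 60 min at 26.5 °C; HTRF read-out.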

JAK2 kinase domain (JH1) = target: T3, JAK2 kinase domain (JH1) (Homo sapiens, UniProt O60674); assay: HTRF-based selectivity assay, JAK2 catalytic domain; assay type: biochemical; settings: 14.7 μM ATP
T3 construct: recombinant purified His or GST-tagged catalytic domain for each enzyme; made in house
In short: as §2

JAK3 kinase domain (JH1) = target: T4, JAK3 kinase domain (JH1) (Homo sapiens, UniProt P52333); assay: HTRF-based selectivity assay, JAK3 catalytic domain; assay type: biochemical; settings: 2.12 μM ATP
T4 construct: recombinant purified His or GST-tagged catalytic domain for each enzyme; purchased Carna biosciences 08-046
Protocol: Example B-2: HTRF-Based Selectivity Assay
The ability of compounds to inhibit the activity of JAK1, JAK2, JAK3 and TYK2 is measured using a recombinant purified His or GST-tagged catalytic domain for each enzyme (JAK1, JAK2 and TYK2 are generated in-house; JAK3 was purchased from Carna biosciences, Cat #08-046) in an HTRF format biochemical assay. The reactions employs a commercial peptide substrate from Cisbio (Cat #62TK0PEC). The basic assay protocol is as follows: first, 2.5 μL of diluted compounds (4×) in DMSO are dispensed into a 384-well Optiplate. Next, 2.5 μL of enzyme (final concentrations for enzymes are: TYK2—700 ng/mL, JAK1—80.6 ng/mL, JAK2—2.1 ng/mL and JAK3—171.8 ng/mL) is added and incubated at RT for 5-20 min. Finally, 5 μl of mixture of 2×ATP [Final concentration 20 μM for TYK2, 21.43 μM for JAK1, 14.7 μM for JAK2 and 2.12 μM for JAK3]+2× Substrate [Final concentration 217 nM for TYK2, 454.7 nM for JAK1, 200 nM for JAK2 and 257.4 nM for JAK3] is added to 384 well Optiplate. Composition of Kinase assay buffer used in the assay is as follows: HEPES 50 mM, EGTA 1 mM, MgCl2 10 mM, DTT 2 mM, Tween-20 0.01% and water. Then the plates are shaken and then incubated at 26.5° C. for 60 min.

[3] = tested on: IL-2-stimulated HEK-Blue IL-2 reporter cells; assay: HEK-Blue IL-2 reporter assay (STAT5-inducible SEAP) for determining selectivity; assay type: cell-based; settings: 4 ng/mL human recombinant IL-2, 24 hours
In short: (§3)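 Cells were plated for 20-22 h, then pretreated with serially diluted compound for 60 min. They were stimulated for 24 h with 4 ng/mL human recombinant IL-2 or 50 ng/mL human recombinant IFNγ, and SEAP induction was read with QUANTI-Blue.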

[4] = tested on: IFNγ-stimulated HEK-Blue IFNγ reporter cells; assay: HEK-Blue IFNγ reporter assay (STAT1-inducible SEAP) for determining selectivity; assay type: cell-based; settings: 50 ng/mL human recombinant IFNγ, 24 hours, read-out: IFN-γ SEAP selectivity assay IC50
In short: as §3

T3 sequence (O60674 849-1124 limits assumed): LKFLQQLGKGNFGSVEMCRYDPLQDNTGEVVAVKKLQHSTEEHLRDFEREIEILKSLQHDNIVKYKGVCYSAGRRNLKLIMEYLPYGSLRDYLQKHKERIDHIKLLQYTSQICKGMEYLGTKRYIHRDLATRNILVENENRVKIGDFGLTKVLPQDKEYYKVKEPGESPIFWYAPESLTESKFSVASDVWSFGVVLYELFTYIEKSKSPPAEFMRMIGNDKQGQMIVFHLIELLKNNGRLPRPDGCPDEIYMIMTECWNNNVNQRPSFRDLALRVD
T2 sequence (P23458 875-1153 limits assumed): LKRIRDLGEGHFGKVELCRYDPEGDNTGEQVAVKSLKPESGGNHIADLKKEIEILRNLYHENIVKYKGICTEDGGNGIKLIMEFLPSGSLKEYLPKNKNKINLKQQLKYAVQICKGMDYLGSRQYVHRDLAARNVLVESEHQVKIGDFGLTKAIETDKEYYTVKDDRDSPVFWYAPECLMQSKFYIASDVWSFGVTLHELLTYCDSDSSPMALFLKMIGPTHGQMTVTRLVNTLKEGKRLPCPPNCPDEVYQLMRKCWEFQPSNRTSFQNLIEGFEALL
T4 sequence (P52333 822-1111 limits assumed): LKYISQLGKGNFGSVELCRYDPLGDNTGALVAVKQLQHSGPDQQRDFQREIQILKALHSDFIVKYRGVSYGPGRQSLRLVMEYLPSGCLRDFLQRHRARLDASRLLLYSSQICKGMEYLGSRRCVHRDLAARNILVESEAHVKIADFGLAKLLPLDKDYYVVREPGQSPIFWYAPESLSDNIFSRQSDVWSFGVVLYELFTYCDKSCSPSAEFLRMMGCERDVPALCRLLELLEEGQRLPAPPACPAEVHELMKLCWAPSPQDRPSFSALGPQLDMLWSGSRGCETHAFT

[2H]C([2H])([2H])NC(=O)c1cnc(NC(=O)C2CC2)nc1Nc1cccc2c1N(C)Cc1cn(C)nc1-2 [Compound 22, 2-(cyclopropanecarboxamido)-4-((2,5-dimethyl-4,5-dihydro-2H-pyrazolo[4,3-c]quinolin-6-yl)amino)-N-(methyl-d3)pyrimidine-5-carboxamide]
IC50 [1]: < 0.03 µM
IC50 [2]: < 0.03 µM
IC50 (TYK2 kinase domain (JH1)): > 1 µM
IC50 (JAK1 kinase domain (JH1)): > 1 µM
IC50 (JAK2 kinase domain (JH1)): > 1 µM
IC50 (JAK3 kinase domain (JH1)): > 1 µM
IC50 [3]: > 1 µM
IC50 [4]: > 1 µM

CN1Cc2cn(C)nc2-c2cccc(Nc3cc(NC(=O)C4CC4)ncc3C(N)=O)c21 [Compound 17, 6-(cyclopropanecarboxamido)-4-((2,5-dimethyl-4,5-dihydro-2H-pyrazolo[4,3-c]quinolin-6-yl)amino)nicotinamide]
IC50 [1]: < 0.03 µM
IC50 [2]: < 0.03 µM
IC50 (TYK2 kinase domain (JH1)): 0.03 to 0.3 µM
IC50 (JAK1 kinase domain (JH1)): < 0.03 µM
IC50 (JAK2 kinase domain (JH1)): < 0.03 µM
IC50 (JAK3 kinase domain (JH1)): < 0.03 µM
IC50 [3]: < 0.03 µM
IC50 [4]: < 0.03 µM

[2H]C([2H])([2H])NC(=O)c1cnc(NC(=O)C2CC2)cc1Nc1cccc2c1N(C)Cc1c[nH]nc1-2 [Compound 23, 6-(cyclopropanecarboxamido)-N-(methyl-d3)-4-((5-methyl-4,5-dihydro-2H-pyrazolo[4,3-c]quinolin-6-yl)amino)nicotinamide]
IC50 [1]: < 0.03 µM
IC50 [2]: < 0.03 µM
IC50 (TYK2 kinase domain (JH1)): > 1 µM
IC50 (JAK1 kinase domain (JH1)): > 1 µM
IC50 (JAK2 kinase domain (JH1)): > 1 µM
IC50 (JAK3 kinase domain (JH1)): > 1 µM
IC50 [3]: > 1 µM
IC50 [4]: > 1 µM

[2H]C([2H])([2H])NC(=O)c1cnc(NC(=O)C2CC2)cc1Nc1nccc2c1N(C([2H])([2H])[2H])Cc1cn(C)nc1-2 [Compound 66, 6-(cyclopropanecarboxamido)-N-(methyl-d3)-4-((2-methyl-5-(methyl-d3)-4,5-dihydro-2H-pyrazolo[4,3-c][1,7]naphthyridin-6-yl)amino)nicotinamide]
IC50 [1]: < 0.03 µM
IC50 [2]: < 0.03 µM
IC50 (TYK2 kinase domain (JH1)): > 1 µM
IC50 (JAK1 kinase domain (JH1)): > 1 µM
IC50 (JAK2 kinase domain (JH1)): > 1 µM
IC50 (JAK3 kinase domain (JH1)): > 1 µM
IC50 [3]: > 1 µM
IC50 [4]: 0.3 to 1 µM

[2H]C([2H])([2H])NC(=O)c1cnc(N2CCN(C(C)C)C2=O)cc1Nc1cccc2c1N(C)Cc1cn(C)nc1-2 [Compound 61, 4-((2,5-dimethyl-4,5-dihydro-2H-pyrazolo[4,3-c]quinolin-6-yl)amino)-6-(3-isopropyl-2-oxoimidazolidin-1-yl)-N-(methyl-d3)nicotinamide]
IC50 [1]: < 0.03 µM
IC50 [2]: 0.03 to 0.3 µM
IC50 (TYK2 kinase domain (JH1)): > 1 µM
IC50 (JAK1 kinase domain (JH1)): > 1 µM
IC50 (JAK2 kinase domain (JH1)): > 1 µM
IC50 (JAK3 kinase domain (JH1)): > 1 µM
IC50 [3]: > 1 µM
IC50 [4]: > 1 µM

[2H]C([2H])([2H])NC(=O)c1nnc(NC(=O)C2CC2)cc1Nc1cccc2c1N(C)Cc1cn(C)nc1-2 [Compound 15, 6-(cyclopropanecarboxamido)-4-((2,5-dimethyl-4,5-dihydro-2H-pyrazolo[4,3-c]quinolin-6-yl)amino)-N-(methyl-d3)pyridazine-3-carboxamide]
IC50 [1]: < 0.03 µM
IC50 [2]: < 0.03 µM
IC50 (TYK2 kinase domain (JH1)): > 1 µM
IC50 (JAK1 kinase domain (JH1)): > 1 µM
IC50 (JAK2 kinase domain (JH1)): > 1 µM
IC50 (JAK3 kinase domain (JH1)): > 1 µM
IC50 [3]: > 1 µM
IC50 [4]: > 1 µM

CNC(=O)c1nnc(NC(=O)C2CC2)cc1Nc1cccc2c1OCc1cn(C)nc1-2 [Compound 2, 6-(cyclopropanecarboxamido)-N-methyl-4-((2-methyl-2,4-dihydrochromeno [4,3-c]pyrazol-6-yl)amino)pyridazine-3-carboxamide]
IC50 [1]: 0.03 to 0.3 µM
IC50 [2]: 0.3 to 1 µM
IC50 (TYK2 kinase domain (JH1)): > 1 µM
IC50 (JAK1 kinase domain (JH1)): > 1 µM
IC50 (JAK2 kinase domain (JH1)): > 1 µM
IC50 (JAK3 kinase domain (JH1)): > 1 µM
IC50 [3]: > 1 µM
IC50 [4]: 0.3 to 1 µM

[2H]C([2H])([2H])NC(=O)c1nnc(Nc2ccc(F)cn2)cc1Nc1cccc2c1OCc1cn(C)nc1-2 [Compound 5, 6-((5-fluoropyridin-2-yl)amino)-N-(methyl-d3)-4-((2-methyl-2,4-dihydrochromeno[4,3-c]pyrazol-6-yl)amino)pyridazine-3-carboxamide]
IC50 [1]: < 0.03 µM
IC50 [2]: 0.03 to 0.3 µM
IC50 (TYK2 kinase domain (JH1)): > 1 µM
IC50 (JAK1 kinase domain (JH1)): > 1 µM
IC50 (JAK2 kinase domain (JH1)): > 1 µM
IC50 (JAK3 kinase domain (JH1)): > 1 µM
IC50 [3]: > 1 µM
IC50 [4]: > 1 µM

[2H]C([2H])([2H])NC(=O)c1cnc(NC(=O)C2CC2)cc1Nc1cccc2c1OCc1cn(C)nc1-2 [Compound 6, 6-(cyclopropanecarboxamido)-N-(methyl-d3)-4-((2-methyl-2,4-dihydrochromeno[4,3-c]pyrazol-6-yl)amino)nicotinamide]
IC50 [1]: 0.03 to 0.3 µM
IC50 [2]: 0.03 to 0.3 µM
IC50 (TYK2 kinase domain (JH1)): > 1 µM
IC50 (JAK1 kinase domain (JH1)): > 1 µM
IC50 (JAK2 kinase domain (JH1)): > 1 µM
IC50 (JAK3 kinase domain (JH1)): > 1 µM
IC50 [3]: > 1 µM
IC50 [4]: > 1 µM

[2H]C([2H])([2H])NC(=O)c1cnc(NC(=O)C2CC2)cc1Nc1cccc2c1N(C)Cc1cn(C)nc1-2 [Compound 14, 6-(cyclopropanecarboxamido)-4-((2,5-dimethyl-4,5-dihydro-2H-pyrazolo[4,3-c]quinolin-6-yl)amino)-N-(methyl-d3)nicotinamide]
IC50 [1]: < 0.03 µM
IC50 [2]: < 0.03 µM
IC50 (TYK2 kinase domain (JH1)): > 1 µM
IC50 (JAK1 kinase domain (JH1)): > 1 µM
IC50 (JAK2 kinase domain (JH1)): > 1 µM
IC50 (JAK3 kinase domain (JH1)): > 1 µM
IC50 [3]: > 1 µM
IC50 [4]: 0.3 to 1 µM
